Assays:
human AML cells = experiment: Flow cytometry of CD34/CD38 and LRC marker proteins (DRD2, SLC2A2, FASLG, FUT3) in human AML cells from xenograft BM; format: in vivo, human AML cells in mice
Protocol: Immunophenotyping for human hematopoietic cell surface markers was carried out using the following antibodies: V450-conjugated anti-CD45 (1:100; 2D1), APC-conjugated anti-CD33 (1:300; WM-33), PE-conjugated anti-CD34 (1:200; 581), FITC- or PE-conjugated anti-CD38 (1:100 or 1:500; HB7), FITC-conjugated anti-CD19 (1:100; HIB19), and APC-conjugated anti-CD3 (1:100; UCHT1; all from BD). In order to evaluate candidates from the LRC gene signature at the protein level, gene targets were identified with available commercial antibodies that had been validated for flow cytometry. Directly conjugated antibodies were used to detect human SLC2A2 (Alexa fluor 488-conjugated; 1:100; 199017; Novus Biologicals) and FASLG (FITC-conjugated; 1:100; SB93A; Thermo Fisher). Additionally, mouse anti-human primary antibodies that recognize human DRD2 (1:100; B-10; Santa Cruz) or FUT3 (1:100, F3, Thermo Fisher) were used, followed by incubation with an Alexa fluor 647- or 555-conjugated donkey anti-mouse secondary antibody ([…]; Thermo Fisher). In these cases of indirect staining, cells were first blocked with donkey serum (Jackson ImmunoResearch Laboratories) plus human FC block (eBioscience). […] When appropriate, fluorescence minus one and secondary antibody controls were used to optimize gating strategies for target cell populations. […]

[1] = test system: human AML cells (CD45+CD33+); experiment: Leukemic chimerism and growth rate in BM of AML-xenografted mice (FACS, serial BM aspirates); details: for Leukemic chimerism levels following DRD2 antagonist therapy: mean ± SEM
[2] = test system: human AML leukemia initiating cells (LSCs); experiment: Serial transplantation (limiting dilution) leukemia-initiating cell / LSC assay in secondary recipient mice; format: in vivo, human AML cells in NOD/SCID or NSG mice
Text: The threshold for engraftment detection was set at ≥0.1% human chimerism.

[3] = Treatment-related mortality on AraC dose intensification in AML-xenografted mice; format: in vivo, mouse; details: AraC 100 mg/kg, 5 consecutive days
Text: This more aggressive regime produced unacceptable treatment-related mortality rates of 60%, which was not balanced by any therapeutic benefit in the few mice that survived.

[4] = test system: healthy human hematopoietic cells (CD45+); experiment: Healthy human hematopoietic chimerism and growth rate in xenografted mice; details: healthy human grafts in mice
human AML progenitors = experiment: CFU (methylcellulose) progenitor assay of human AML cells purified from treated xenograft BM

Nc1ccn([C@@H]2O[C@H](CO)[C@@H](O)[C@@H]2O)c(=O)n1 [AraC, Cytarabine]
frequencies of primitive CD34+ and CD34+CD38− cells within residual AML populations (human AML cells; AraC 5 consecutive days, xenograft BM 24-72 hr after final dose): strongly reduced | recipient mice with persisting residual disease ([1]; AML patient #13 xenografts, AraC alone, 9 days after final AraC dose): 50% | leukemic growth after AraC vs vehicle-treated controls ([1]; AML xenografts, kinetic modeling of serial BM aspirates): accelerated leukemic growth | functional LSCs (serial LIC transplantation) ([2]; AML xenografts, 48 hr after final AraC dose): suppressed | #Engrafted mice ([2]; AML#2, +AraC, cell dose 1 × 10^6, cells transplanted 48 hr after final AraC dose): 0/4 | #Engrafted mice ([2]; AML#2, +AraC, cell dose 2 × 10^5, cells transplanted 48 hr after final AraC dose): 0/4 | #Engrafted mice ([2]; AML#3, +AraC, cell dose 2 × 10^5, cells transplanted 48 hr after final AraC dose): 1/4 | #Engrafted mice ([2]; AML#3, +AraC, cell dose 3 × 10^4, cells transplanted 48 hr after final AraC dose): 0/3 | treatment-related mortality rate [3]: 60% | re-growth rates of healthy human hematopoiesis after AraC cytoreduction [4]: rates matching those of vehicle-treated controls | functional progenitors in residual leukemic populations (CFU) (human AML progenitors; AML xenografts, 48 hr after AraC withdrawal): depleted

CSc1ccc2c(c1)N(CCC1CCCCN1C)c1ccccc1S2 (stereo not shown) [DRD2 antagonist, thioridazine]
DRD2 protein expression in human leukemic cells from xenograft BM (human AML cells; DRD2 antagonist with AraC, LRC stage): loss of DRD2 protein expression | time to overt relapse ([1]; AML #3 xenografts, AraC plus DRD2 antagonist vs AraC alone, relapse set at 20% leukemic chimerism, estimated from growth rates): nearly doubled | Leukemic chimerism levels following DRD2 antagonist therapy ([1]; AML #5, LRCs (in combination with AraC)): 1.4 ± 0.3 | Leukemic chimerism levels following DRD2 antagonist therapy ([1]; AML #5, Therapy-naive (single agent, no AraC)): 12.4 ± 2.2 | Leukemic chimerism levels following DRD2 antagonist therapy ([1]; AML #10, LRCs (in combination with AraC)): 16.9 ± 8.7 | Leukemic chimerism levels following DRD2 antagonist therapy ([1]; AML #11, LRCs (in combination with AraC)): 1.4 ± 1.4 | leukemic growth rates after AraC ([1]; AML Patient #3 xenografts, DRD2 antagonist plus AraC vs AraC alone): successfully disrupted | recipients achieving disease-free status ([1]; AML patient #13 xenografts, DRD2 antagonist added to AraC): 100% | overall cytoreductive activity of AraC (leukemic chimerism) ([1]; in vivo delivery of DRD2 antagonist with AraC): did not improve | LIC content of therapy-naïve AML ([2]; DRD2 antagonist single agent, AML #5, serial transplantation): did not impact | LIC activity of AraC-exposed LRCs ([2]; DRD2 antagonist together with AraC, AML #5, serial transplantation 9 days post-AraC): complete loss of LIC activity | disease regeneration potential (secondary LIC assays and progenitor assays) ([2]; DRD2 antagonist with AraC, three additional AML patient samples): reproducibly blocked | effect on progenitors of regenerating LRCs (CFU) (human AML progenitors; DRD2 antagonist in combination with AraC, 9 days after last AraC dose): profound effects | effect on AML progenitors arising from therapy-naive LSCs (CFU) (human AML progenitors; DRD2 antagonist single agent, 21-day regimen, AML xenografts): moderately affected

— patent US20200080157A1, “PROGNOSIS AND TREATMENT OF RELAPSING LEUKEMIA” (McMaster University, priority 2018, published 2020)
